These results are taken from paper PMC10107299, “Neutralizing the Impact of the Virulence Factor LecA from Pseudomonas aeruginosa on Human Cells with New Glycomimetic Inhibitors” (Angewandte Chemie (International Ed. in English), 2023).

Data set [1] can be described thus: In vitro metabolic stability, mouse liver microsomes. In kind it is in vitro ADME. To be noted: N=3, read-out: CLint MLM. How it is done: (§1) Acetonitrile and caffeine were dispensed using a Mantis Formulatrix. Then samples were centrifuged for 20 min at 2.270 x g at 4 °C and the supernatants were transferred to 96-well Greiner V-bottom plates. Peak areas of each compound and of the internal standard were analyzed using the MultiQuant 3.0 software (AB Sciex). Peak areas of the respective compound were normalized to the internal standard peak area and to the respective peak areas at time point 0 min: (C/D)/(A/B) with A: peak area of the compound at time point 0 min, B: peak area of the internal standard at time point 0 min, C: peak area of the compound at the respective time point, D: peak area of the internal standard at the respective time point.
(§2) In vitro metabolic stability assay
(§3) Liver microsomes (mouse and human, Thermo Fisher) were thawed slowly on ice. 20 mg/mL of microsomes, 2 µL of a 100 µM solution of every compound and 183 µL of 100 mM phosphate buffer were incubated 5 min at 37 °C in a water bath. Reactions were initiated using 10 µL of 20 mM NADPH (CarlRoth). Samples were incubated in three replicates at 37 °C under gentle agitation at 150 rpm. At 0, 5, 15, 30, and 60 min, reactions were terminated by the addition of 180 µL acetonitrile using a Mantis Formulatrix dispenser. Samples were vortexed for 5 min using an Eppendorf MixMate vortex mixer and centrifuged at 2.270 x g for 20 min at 4 °C. The supernatants were transferred to 96-well Greiner V-bottom plates, sealed and analyzed according to the section HPLC-MS analysis. Peak areas of the respective time point of the compounds were normalized to the peak area at time point 0 min. Then half-life was calculated using linear regression (Microsoft Excel). Clint [µL/min/mg protein] was calculated using the following formula: […]

Data set [2] is described as follows: In vitro metabolic stability, human liver microsomes. Format: in vitro ADME. The note with it: N=3, read-out: CLint HLM. How it is done: We then determined the in vitro metabolic stability in plasma and liver microsomes as well as plasma protein binding for a selected subset of the synthesized LecA inhibitors, i.e. D1, D2, H1, H2 and L2 and compared them to the parent bisacylhydrazone 14 (Table 2). […] The metabolic stability of the compounds differed in presence of human liver microsomes (HLM). Introduction of a pyridine ring decreased stability (H1 CLint=28.6 μL min^−1/mg protein, H2 CLint=32.5 μL min^−1/mg protein) compared to the benzene analogues (D1 CLint=21.9 μL min^−1/mg protein, D2 CLint=21.0 μL min^−1/mg protein) and to the parent acylhydrazone 14 (CLint=19.6 μL min^−1/mg protein). […]
as §1, with “mixer (Eppendorf). Acetonitrile” for “Acetonitrile”
as §2, §3
A general note: Microsomes from liver hold many membrane-bound enzymes, among them those of drug oxidation.

The target of the next data set is T1, LecA (Pseudomonas aeruginosa, UniProt Q05097).
T1 construct: made in house
T1 sequence (Q05097 whole entry): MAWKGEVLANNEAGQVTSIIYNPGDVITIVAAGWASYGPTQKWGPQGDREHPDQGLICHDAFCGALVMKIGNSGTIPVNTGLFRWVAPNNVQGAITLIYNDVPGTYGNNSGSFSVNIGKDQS
Kind of data set: Inhibition of LecA-AF488 binding to H1299 cells, flow cytometry. In kind it is cell-based. To be noted: for IC50: IC50 for inhibition of LecA binding to H1299 cells, N=3; for IC50 / Decrease of LecA binding to H1299 cells: 0.16 μM LecA-AF488, flow cytometry; for Inhibition of lectin binding to the cells: 7.5 μM and above, flow cytometry. How it is done:
Next, we investigated the two most promising compounds H2 and L2 for their efficacy to inhibit LecA binding to H1299 human lung epithelial cells using flow cytometry and confocal microscopy. To this end, LecA was fluorescently labelled with Alexa Fluor 488 NHS ester (LecA‐AF488), incubated with varying concentrations of the inhibitors (100 nM to 10 μM) and subsequently added to the cells.
For flow cytometry analysis, inhibitors were preincubated with 0.16 μM LecA prior addition to the H1299 cells. After incubation for 30 min, fluorescence intensity was recorded at the flow cytometer. […] In contrast, 10 μM of the corresponding monovalent ligands G2 and K2 were required for 50 % inhibition (Figure S10).
H1299 cells were detached with 2 mL of 1.5 mM EDTA in PBS, 1.2 × 10^5 cells were counted and transferred to a U-bottom 96 well plate (Sarstedt AG & Co. KG, Numbrecht, Germany).
For flow cytometry assay, the optimal LecA concentration was established following a lectin titration (0.04–0.5 µM LecA-AF488) with H1299 cells. The histogram of fluorescence intensity […]
µM LecA-AF488 was used in flow cytometry experiments. LecA-AF488 was preincubated with PNPG, G2, K2, H2 or L2 in RPMI medium, for 20 min at room temperature and protected from light. The ligand-LecA solution was then added to the cells and further incubated for 30 min at 4 °C. H1299 cells were resuspended with medium in absence of lectin or inhibitor represented the negative assay control, while cells incubated only with LecA-AF488 (no inhibitor) served as the positive control. Subsequently, cells were centrifuged at 1600 × g for 3 min at 4 °C to remove unbound lectin. The samples were then washed twice with ice-cold FACS buffer (PBS (-/-) supplemented with 3% FCS (v/v)). After the last washing step, the cells were re-suspended in FACS buffer and transferred to FACS tubes (Kisker Biotech GmbH Co. KG, Steinfurt, Germany) on ice and in absence of light. The fluorescence intensity of treated cells was measured with FACS Gallios from Beckman Coulter. […]
In general terms: A flow cytometer gives signals particle by particle.

“And” between values parts separate entries of the source, which are not always exact repeats. Identical values can stand only once.

For the molecule `O=C(/C=C/c1ccc(O[C@@H]2O[C@H](CO)[C@H](O)[C@H](O)[C@H]2O)cc1)Nc1ccc(OCCOc2ccc(NC(=O)/C=C/c3ccc(O[C@@H]4O[C@H](CO)[C@H](O)[C@H](O)[C@H]4O)cc3)cc2)cc1` [Compound D1], the microsomal CLint at 1 µM in data set [1] stood at 22.4 µL/min/mg; in data set [2] it was 21.9 µL/min/mg.

For the molecule `O=C(CCc1ccc(O[C@@H]2O[C@H](CO)[C@H](O)[C@H](O)[C@H]2O)cc1)Nc1ccc(OCCOc2ccc(NC(=O)CCc3ccc(O[C@@H]4O[C@H](CO)[C@H](O)[C@H](O)[C@H]4O)cc3)cc2)cc1` [Compound D2], the microsomal CLint at 1 µM in data set [1] is 29.6 µL/min/mg; in data set [2], 21 µL/min/mg.

Turning to `COc1ccc(NC(=O)CCc2ccc(O[C@@H]3O[C@H](CO)[C@H](O)[C@H](O)[C@H]3O)cc2)cn1` [Compound G2], on LecA, the IC50 – broadly, the concentration at which inhibition is half-maximal – is 2800 nM and 2790 nM.

Regarding `O=C(/C=C/c1ccc(O[C@@H]2O[C@H](CO)[C@H](O)[C@H](O)[C@H]2O)cc1)Nc1ccc(OCCOc2ccc(NC(=O)/C=C/c3ccc(O[C@@H]4O[C@H](CO)[C@H](O)[C@H](O)[C@H]4O)cc3)cn2)nc1` [Compound H1], the microsomal CLint at 1 µM is 17.5 µL/min/mg in data set [1] and 28.6 µL/min/mg in data set [2].

In the case of `O=C(CCc1ccc(O[C@@H]2O[C@H](CO)[C@H](O)[C@H](O)[C@H]2O)cc1)Nc1ccc(OCCOc2ccc(NC(=O)CCc3ccc(O[C@@H]4O[C@H](CO)[C@H](O)[C@H](O)[C@H]4O)cc3)cn2)nc1` [Compound H2], the microsomal CLint at 1 µM in data set [1] is 6.8 µL/min/mg; in data set [2] it was 32.5 µL/min/mg. Besides, the figures for the “Decrease of LecA binding to H1299 cells” value at LecA (250 nM inhibitor) and at LecA (1 μM inhibitor) were 16% and 50%, respectively. At LecA, the “Inhibition of lectin binding to the cells” value is “complete inhibition”. Further, the IC50 on LecA was 540 nM.

Take `Cc1ccc(NC(=O)CCc2ccc(O[C@@H]3O[C@H](CO)[C@H](O)[C@H](O)[C@H]3O)cc2)cc1S(=O)(=O)O` [Compound K2]: on LecA, the IC50 is 1900 nM and 1890 nM.

With `O=C(CCc1ccc(O[C@@H]2O[C@H](CO)[C@H](O)[C@H](O)[C@H]2O)cc1)Nc1ccc(CCc2ccc(NC(=O)CCc3ccc(O[C@@H]4O[C@H](CO)[C@H](O)[C@H](O)[C@H]4O)cc3)cc2S(=O)(=O)O)c(S(=O)(=O)O)c1` [Compound L2], the microsomal CLint at 1 µM was found to be 29.5 µL/min/mg in data set [1] and 9.2 µL/min/mg in data set [2]. Moreover, the “Decrease of LecA binding to H1299 cells” value is listed as “more than 30%” at LecA (250 nM inhibitor) and 50% on LecA (1 μM inhibitor). Also, the “Inhibition of lectin binding to the cells” value at LecA is listed as “complete inhibition”. Further, the IC50 on LecA is 560 nM.
